Experiments:
[1] = target: T1, Solute carrier family 22 member 7 (Rattus norvegicus, UniProt Q5RLM2); assay: TP_TRANSPORTER: inhibition of Salicylate uptake in Oat2-expressing LLC PK1 cells; format: functional, cell-based
T1 sequence (Q5RLM2 whole entry): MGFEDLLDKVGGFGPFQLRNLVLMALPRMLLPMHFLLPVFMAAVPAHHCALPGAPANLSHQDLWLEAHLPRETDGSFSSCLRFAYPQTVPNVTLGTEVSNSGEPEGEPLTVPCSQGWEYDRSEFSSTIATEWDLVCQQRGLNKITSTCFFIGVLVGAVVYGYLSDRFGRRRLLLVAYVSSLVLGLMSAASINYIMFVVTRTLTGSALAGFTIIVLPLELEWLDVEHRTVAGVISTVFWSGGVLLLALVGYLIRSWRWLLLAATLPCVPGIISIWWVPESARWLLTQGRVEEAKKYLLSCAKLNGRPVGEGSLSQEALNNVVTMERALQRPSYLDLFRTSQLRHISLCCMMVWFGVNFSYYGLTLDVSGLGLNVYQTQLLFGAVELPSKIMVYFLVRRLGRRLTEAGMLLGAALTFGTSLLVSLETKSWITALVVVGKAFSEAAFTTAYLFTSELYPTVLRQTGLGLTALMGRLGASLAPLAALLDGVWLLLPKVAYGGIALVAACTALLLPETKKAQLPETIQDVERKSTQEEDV

[2] = target: T2, Oat2 (Solute carrier family 22 member 7) (Rattus norvegicus, UniProt Q5RLM2); assay: (§1) TP_TRANSPORTER: uptake in Oat2-expressing LLC PK1 cells; format: functional, cell-based; conditions: pig
T2 sequence (Q5RLM2 whole entry): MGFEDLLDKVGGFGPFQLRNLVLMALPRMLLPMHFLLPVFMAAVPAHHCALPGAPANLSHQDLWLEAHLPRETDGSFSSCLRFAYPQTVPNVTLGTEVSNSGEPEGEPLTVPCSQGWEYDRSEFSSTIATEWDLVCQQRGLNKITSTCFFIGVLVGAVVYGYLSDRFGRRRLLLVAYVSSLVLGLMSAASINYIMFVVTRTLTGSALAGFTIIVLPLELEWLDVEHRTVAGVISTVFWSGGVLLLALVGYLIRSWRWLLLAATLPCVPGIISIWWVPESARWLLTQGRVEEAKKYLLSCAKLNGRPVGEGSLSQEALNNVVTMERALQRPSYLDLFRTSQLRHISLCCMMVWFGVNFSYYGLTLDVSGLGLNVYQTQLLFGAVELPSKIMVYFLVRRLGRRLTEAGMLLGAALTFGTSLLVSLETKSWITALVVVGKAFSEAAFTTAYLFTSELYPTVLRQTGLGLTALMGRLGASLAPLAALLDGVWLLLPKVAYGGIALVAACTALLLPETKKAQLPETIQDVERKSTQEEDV

[3] = substrate: Nc1ccn([C@H]2CC[C@@H](CO)O2)c(=O)n1; assay: as §1; format: functional, cell-based
[4] = substrate: O=C(O)c1ccccc1O; assay: cells, lysate or membranes named

COc1ccc(Cl)cc1C(=O)NCCc1ccc(S(=O)(=O)NC(=O)NC2CCCCC2)cc1 [GLYBURIDE]
Ki [1]: 12300 nM

CC1(C)C(/C=C/C=C/C=C/C=C2\N(CCCCS(=O)(=O)O)c3ccc4ccccc4c3C2(C)C)=[N+](CCCCS(=O)(=O)[O-])c2ccc3ccccc3c21 [INDOCYANINE GREEN]
Ki [1]: 1150 nM

COc1ccc2c(c1)c(CC(=O)O)c(C)n2C(=O)c1ccc(Cl)cc1 [INDOMETHACIN]
Km [2]: 0.366 µM

CC(C(=O)O)c1cccc(C(=O)c2ccccc2)c1 (configuration not stated) [KETOPROFEN]
Ki [1]: 1840 nM

Cc1cn([C@H]2C[C@H](N=[N+]=[N-])[C@@H](CO)O2)c(=O)[nH]c1=O [ZIDOVUDINE]
Km [2]: 26 µM

B1: Solute carrier family 22 member 7 (Rattus norvegicus) (protein)
chain: MGFEDLLDKVGGFGPFQLRNLVLMALPRMLLPMHFLLPVFMAAVPAHHCALPGAPANLSHQDLWLEAHLPRETDGSFSSCLRFAYPQTVPNVTLGTEVSNSGEPEGEPLTVPCSQGWEYDRSEFSSTIATEWDLVCQQRGLNKITSTCFFIGVLVGAVVYGYLSDRFGRRRLLLVAYVSSLVLGLMSAASINYIMFVVTRTLTGSALAGFTIIVLPLELEWLDVEHRTVAGVISTVFWSGGVLLLALVGYLIRSWRWLLLAATLPCVPGIISIWWVPESARWLLTQGRVEEAKKYLLSCAKLNGRPVGEGSLSQEALNNVVTMERALQRPSYLDLFRTSQLRHISLCCMMVWFGVNFSYYGLTLDVSGLGLNVYQTQLLFGAVELPSKIMVYFLVRRLGRRLTEAGMLLGAALTFGTSLLVSLETKSWITALVVVGKAFSEAAFTTAYLFTSELYPTVLRQTGLGLTALMGRLGASLAPLAALLDGVWLLLPKVAYGGIALVAACTALLLPETKKAQLPETIQDVERKSTQEEDV
Km [3]: 3000 µM
Km [4]: 81.2 µM

From ChEMBL document CHEMBL2073755, “TP-search Transporter Database” (Jpn Pharmacol Ther, 2001)
